Measured values: ChEMBL document CHEMBL5465560, “Selectivity Literature for EUbOPEN Chemogenomic Library” (2024)
Blank lines part the entries; values can stand above or below the compound they belong to.

Columns and labels:
[1] = biological target: N-lysine methyltransferase SMYD2 (Homo sapiens) (UniProt Q9NRG4); assay: Selectivity interaction (Methyltransferase screen (radiometric assays, panel of 8 PRMTs, 21 protein lysine methyltransferases, 3 DNA methyltransferases, and one RNA methyltransferase)) EUB0000271b SMYD2
Chain of N-lysine methyltransferase SMYD2 (Homo sapiens) (Q9NRG4 whole entry): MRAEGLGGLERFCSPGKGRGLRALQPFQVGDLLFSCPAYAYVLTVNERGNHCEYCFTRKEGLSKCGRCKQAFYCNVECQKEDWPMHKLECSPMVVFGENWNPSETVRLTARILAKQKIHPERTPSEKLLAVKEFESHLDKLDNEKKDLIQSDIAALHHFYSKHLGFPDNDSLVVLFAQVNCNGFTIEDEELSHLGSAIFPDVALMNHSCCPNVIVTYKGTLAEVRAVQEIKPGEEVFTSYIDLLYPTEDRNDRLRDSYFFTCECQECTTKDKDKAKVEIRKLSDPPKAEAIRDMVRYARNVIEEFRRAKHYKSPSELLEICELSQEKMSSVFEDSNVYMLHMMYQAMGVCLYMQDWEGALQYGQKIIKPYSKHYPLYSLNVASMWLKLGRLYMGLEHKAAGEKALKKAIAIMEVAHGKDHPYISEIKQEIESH

Insulin receptor = Insulin receptor (Homo sapiens, UniProt P06213); conditions: at 3 µM
[2] = biological target: T1, Serine/threonine-protein kinase ULK1 (Homo sapiens) (UniProt O75385); assay: Selectivity interaction (Ambit KINOMEscan and KiNATiv profiling in Jurkat cells) EUB0000090b ULK1; type: cell-based; conditions: at 1 µM
T1 sequence (whole entry): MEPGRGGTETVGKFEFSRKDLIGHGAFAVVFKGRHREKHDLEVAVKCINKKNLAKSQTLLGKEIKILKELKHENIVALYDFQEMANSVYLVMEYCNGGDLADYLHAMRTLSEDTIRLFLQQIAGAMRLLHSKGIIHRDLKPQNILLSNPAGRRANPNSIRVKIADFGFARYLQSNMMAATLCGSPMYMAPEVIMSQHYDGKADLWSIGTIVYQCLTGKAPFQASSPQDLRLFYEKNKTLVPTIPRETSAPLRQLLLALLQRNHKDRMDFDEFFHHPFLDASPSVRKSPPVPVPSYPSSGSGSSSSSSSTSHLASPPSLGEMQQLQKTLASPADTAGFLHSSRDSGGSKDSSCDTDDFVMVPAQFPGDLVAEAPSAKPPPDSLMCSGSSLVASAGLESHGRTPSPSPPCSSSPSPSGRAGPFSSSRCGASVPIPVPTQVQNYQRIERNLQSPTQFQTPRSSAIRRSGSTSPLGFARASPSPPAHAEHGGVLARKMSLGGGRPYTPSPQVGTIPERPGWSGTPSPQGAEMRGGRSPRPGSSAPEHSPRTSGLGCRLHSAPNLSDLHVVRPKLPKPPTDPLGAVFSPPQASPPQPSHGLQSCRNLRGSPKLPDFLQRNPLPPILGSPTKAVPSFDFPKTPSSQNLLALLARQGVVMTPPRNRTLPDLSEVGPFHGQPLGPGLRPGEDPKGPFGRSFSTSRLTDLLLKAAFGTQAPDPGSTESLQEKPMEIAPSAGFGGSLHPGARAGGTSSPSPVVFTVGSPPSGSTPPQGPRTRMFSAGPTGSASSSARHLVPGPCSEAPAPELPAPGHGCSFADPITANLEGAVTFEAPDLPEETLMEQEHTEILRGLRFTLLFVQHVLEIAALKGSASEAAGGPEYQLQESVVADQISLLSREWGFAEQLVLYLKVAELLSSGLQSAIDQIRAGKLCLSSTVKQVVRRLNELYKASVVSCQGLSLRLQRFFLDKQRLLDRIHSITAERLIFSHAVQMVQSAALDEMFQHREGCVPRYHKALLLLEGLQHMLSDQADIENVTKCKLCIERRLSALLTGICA

[3] = biological target: T2, Aurora kinase A (Homo sapiens) (UniProt O14965); assay: Selectivity interaction (Ambit KINOMEscan and KiNATiv profiling in Jurkat cells) EUB0000090b STK6; type: cell-based; conditions: at 1 µM
T2 sequence (whole entry): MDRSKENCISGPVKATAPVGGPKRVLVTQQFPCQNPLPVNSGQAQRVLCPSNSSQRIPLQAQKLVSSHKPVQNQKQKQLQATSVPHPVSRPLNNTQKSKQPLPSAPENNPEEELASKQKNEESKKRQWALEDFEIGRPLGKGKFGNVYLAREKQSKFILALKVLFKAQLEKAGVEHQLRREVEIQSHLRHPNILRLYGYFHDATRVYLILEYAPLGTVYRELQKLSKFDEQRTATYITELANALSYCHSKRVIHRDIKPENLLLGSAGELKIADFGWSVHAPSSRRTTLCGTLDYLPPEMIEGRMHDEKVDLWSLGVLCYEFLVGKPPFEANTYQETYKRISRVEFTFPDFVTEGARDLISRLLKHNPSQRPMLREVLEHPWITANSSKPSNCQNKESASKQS

[4] = biological target: Cyclin-dependent kinase 17 (Homo sapiens) (UniProt Q00537); assay: Selectivity interaction (Ambit KINOMEscan and KiNATiv profiling in Jurkat cells) EUB0000090b CDK17; type: cell-based; conditions: at 1 µM
Chain of Cyclin-dependent kinase 17 (Homo sapiens) (Q00537 whole entry, looked up): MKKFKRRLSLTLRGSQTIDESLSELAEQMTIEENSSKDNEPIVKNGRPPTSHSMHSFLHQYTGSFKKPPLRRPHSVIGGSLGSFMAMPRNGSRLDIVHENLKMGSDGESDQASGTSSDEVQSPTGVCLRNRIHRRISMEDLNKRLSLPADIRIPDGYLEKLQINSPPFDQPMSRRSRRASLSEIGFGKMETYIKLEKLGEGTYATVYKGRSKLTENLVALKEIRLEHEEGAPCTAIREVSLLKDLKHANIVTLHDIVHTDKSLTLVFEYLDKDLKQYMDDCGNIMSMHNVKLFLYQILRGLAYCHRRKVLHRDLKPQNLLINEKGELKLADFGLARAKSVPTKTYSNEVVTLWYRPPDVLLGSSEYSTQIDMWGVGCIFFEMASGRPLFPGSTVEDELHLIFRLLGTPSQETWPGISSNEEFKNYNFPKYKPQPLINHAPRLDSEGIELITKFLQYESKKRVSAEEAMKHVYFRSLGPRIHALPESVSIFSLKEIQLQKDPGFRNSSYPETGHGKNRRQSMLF

[5] = biological target: Insulin receptor-related protein (Homo sapiens) (UniProt P14616); assay: Selectivity interaction (KinomeScan (DiscoverX)) EUB0000655a INSRR; conditions: at 10 µM
[6] = biological target: Dual specificity tyrosine-phosphorylation-regulated kinase 1A (Homo sapiens, UniProt Q13627); assay: Selectivity interaction (KinomeScan (DiscoverX)) EUB0000618a DYRK1A; conditions: at 10 µM
[7] = biological target: Tyrosine-protein kinase HCK (Homo sapiens) (UniProt P08631); assay: Selectivity interaction (ActivX KiNativ screen (ex vivo kinase selectivity in human PBMCs)) EUB0001619a HCK; type: cell-based; conditions: PBMC, at 1 µM
Chain of Tyrosine-protein kinase HCK (Homo sapiens) (P08631 2-526 limits assumed): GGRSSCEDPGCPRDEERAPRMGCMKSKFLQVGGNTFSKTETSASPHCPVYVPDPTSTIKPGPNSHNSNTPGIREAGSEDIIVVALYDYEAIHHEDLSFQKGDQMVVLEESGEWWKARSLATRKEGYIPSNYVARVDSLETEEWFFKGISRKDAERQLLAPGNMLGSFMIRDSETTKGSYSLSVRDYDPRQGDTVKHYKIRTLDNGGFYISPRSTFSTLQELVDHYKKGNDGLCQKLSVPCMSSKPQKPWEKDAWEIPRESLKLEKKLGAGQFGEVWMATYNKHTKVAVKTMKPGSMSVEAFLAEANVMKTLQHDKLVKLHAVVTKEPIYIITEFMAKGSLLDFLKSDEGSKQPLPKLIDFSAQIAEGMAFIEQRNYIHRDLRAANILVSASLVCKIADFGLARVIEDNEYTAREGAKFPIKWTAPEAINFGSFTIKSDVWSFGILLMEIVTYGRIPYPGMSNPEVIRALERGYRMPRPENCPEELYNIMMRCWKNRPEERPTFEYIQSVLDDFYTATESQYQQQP

[8] = biological target: Mitogen-activated protein kinase 9 (Homo sapiens, UniProt P45984); conditions: at 10 µM
[9] = biological target: Interferon-induced, double-stranded RNA-activated protein kinase (Homo sapiens) (UniProt P19525); assay: Selectivity interaction (Kinase panel (KiNativ target engagement assay in Jurkat cells)) EUB0001635a EIF2AK2; type: cell-based; conditions: Selectivity number of off-targets 0.0, Selectivity number of targets 233.0, Source Knowledge https://www.sciencedirect.com/science/article/pii/S2451945619300674?via%3Dihub, at 1 µM
[10] = biological target: Casein kinase I isoform alpha (Homo sapiens, UniProt P48729); assay: Selectivity interaction (ActivX KiNativ screen (kinase selectivity in THP-1 cell lysates)) EUB0000639a CSNK1A1; type: subcellular; conditions: lysate
Chain of Casein kinase I isoform alpha (P48729 2-337 limits assumed): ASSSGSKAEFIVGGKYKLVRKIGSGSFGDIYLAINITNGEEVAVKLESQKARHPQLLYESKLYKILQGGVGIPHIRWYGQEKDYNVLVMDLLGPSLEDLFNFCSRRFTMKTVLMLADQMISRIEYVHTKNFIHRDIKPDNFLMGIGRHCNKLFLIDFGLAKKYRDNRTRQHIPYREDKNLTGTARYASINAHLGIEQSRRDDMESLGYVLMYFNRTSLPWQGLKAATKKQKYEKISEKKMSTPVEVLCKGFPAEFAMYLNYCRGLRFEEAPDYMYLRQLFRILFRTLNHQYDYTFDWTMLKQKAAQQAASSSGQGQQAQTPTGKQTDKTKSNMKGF

[11] = biological target: Serine/threonine-protein kinase PLK3 (Homo sapiens, UniProt Q9H4B4); assay: Selectivity interaction (Kinase panel (Invitrogen)) EUB0000639a PLK3; conditions: at 200 nM
Chain of Serine/threonine-protein kinase PLK3 (Q9H4B4 whole entry, looked up): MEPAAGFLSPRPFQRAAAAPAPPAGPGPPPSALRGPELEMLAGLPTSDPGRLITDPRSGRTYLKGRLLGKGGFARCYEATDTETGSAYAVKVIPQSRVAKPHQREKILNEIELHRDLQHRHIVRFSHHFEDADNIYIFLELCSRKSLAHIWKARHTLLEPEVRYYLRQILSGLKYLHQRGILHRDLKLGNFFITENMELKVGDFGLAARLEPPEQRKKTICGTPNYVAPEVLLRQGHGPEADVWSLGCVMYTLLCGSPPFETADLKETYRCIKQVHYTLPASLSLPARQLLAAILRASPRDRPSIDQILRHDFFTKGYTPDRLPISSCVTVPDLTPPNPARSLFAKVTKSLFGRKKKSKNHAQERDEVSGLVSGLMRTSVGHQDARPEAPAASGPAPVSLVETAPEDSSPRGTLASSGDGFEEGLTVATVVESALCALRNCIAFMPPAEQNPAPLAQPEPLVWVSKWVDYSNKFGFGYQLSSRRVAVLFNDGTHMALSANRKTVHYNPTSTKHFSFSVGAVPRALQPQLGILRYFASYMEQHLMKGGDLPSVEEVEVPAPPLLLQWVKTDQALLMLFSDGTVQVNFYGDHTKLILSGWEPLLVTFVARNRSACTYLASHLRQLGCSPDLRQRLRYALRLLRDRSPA

[12] = biological target: Serine/threonine-protein kinase MRCK gamma (Homo sapiens) (UniProt Q6DT37); assay: Selectivity interaction (KinomeScan (DiscoverX)) EUB0000229b CDC42BPG; conditions: at 10 µM
Chain of Serine/threonine-protein kinase MRCK gamma (Homo sapiens) (Q6DT37 whole entry): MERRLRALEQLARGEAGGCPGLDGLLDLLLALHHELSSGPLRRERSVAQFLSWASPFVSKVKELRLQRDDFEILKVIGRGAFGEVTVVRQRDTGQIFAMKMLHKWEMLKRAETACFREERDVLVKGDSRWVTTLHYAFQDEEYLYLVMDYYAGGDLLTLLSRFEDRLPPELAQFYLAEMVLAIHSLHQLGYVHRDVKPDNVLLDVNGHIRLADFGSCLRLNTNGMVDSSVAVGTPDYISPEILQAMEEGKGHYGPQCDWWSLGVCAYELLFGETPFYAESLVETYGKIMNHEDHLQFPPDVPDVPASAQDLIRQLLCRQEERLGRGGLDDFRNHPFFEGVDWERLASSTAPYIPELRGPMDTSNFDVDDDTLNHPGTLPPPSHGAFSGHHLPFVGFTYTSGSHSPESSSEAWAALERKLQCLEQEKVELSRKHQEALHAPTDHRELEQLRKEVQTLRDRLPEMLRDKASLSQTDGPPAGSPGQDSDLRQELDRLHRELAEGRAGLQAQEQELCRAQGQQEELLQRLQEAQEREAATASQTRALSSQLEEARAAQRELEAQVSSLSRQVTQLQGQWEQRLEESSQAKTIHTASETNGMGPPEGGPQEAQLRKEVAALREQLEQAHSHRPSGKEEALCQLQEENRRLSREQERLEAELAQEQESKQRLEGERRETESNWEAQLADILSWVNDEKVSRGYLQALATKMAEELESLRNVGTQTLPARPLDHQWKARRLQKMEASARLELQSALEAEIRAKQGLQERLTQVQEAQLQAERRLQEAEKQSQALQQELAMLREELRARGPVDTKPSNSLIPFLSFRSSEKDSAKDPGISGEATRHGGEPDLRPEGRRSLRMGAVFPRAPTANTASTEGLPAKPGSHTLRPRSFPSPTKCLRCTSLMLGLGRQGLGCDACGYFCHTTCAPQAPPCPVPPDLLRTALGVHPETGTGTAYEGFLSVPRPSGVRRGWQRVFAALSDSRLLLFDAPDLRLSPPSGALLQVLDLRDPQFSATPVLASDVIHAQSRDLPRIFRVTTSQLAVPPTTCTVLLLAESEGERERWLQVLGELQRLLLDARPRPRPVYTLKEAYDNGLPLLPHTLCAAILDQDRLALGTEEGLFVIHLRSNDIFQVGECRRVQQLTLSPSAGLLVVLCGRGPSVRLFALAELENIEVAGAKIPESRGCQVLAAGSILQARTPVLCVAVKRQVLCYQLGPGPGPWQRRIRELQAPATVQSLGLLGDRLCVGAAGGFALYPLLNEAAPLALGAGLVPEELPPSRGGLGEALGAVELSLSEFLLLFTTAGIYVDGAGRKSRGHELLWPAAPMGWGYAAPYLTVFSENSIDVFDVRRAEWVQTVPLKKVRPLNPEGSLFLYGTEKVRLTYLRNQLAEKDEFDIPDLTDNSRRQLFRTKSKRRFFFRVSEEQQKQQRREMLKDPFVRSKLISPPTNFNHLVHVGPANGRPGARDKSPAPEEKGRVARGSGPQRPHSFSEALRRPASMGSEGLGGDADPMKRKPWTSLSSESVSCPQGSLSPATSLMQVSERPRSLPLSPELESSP

[13] = biological target: Serine/threonine-protein kinase SIK1 (Homo sapiens) (UniProt P57059); assay: Selectivity interaction (KinomeScan (DiscoverX)) EUB0001049a SIK1; conditions: at 1 µM
Chain of Serine/threonine-protein kinase SIK1 (Homo sapiens) (P57059 whole entry): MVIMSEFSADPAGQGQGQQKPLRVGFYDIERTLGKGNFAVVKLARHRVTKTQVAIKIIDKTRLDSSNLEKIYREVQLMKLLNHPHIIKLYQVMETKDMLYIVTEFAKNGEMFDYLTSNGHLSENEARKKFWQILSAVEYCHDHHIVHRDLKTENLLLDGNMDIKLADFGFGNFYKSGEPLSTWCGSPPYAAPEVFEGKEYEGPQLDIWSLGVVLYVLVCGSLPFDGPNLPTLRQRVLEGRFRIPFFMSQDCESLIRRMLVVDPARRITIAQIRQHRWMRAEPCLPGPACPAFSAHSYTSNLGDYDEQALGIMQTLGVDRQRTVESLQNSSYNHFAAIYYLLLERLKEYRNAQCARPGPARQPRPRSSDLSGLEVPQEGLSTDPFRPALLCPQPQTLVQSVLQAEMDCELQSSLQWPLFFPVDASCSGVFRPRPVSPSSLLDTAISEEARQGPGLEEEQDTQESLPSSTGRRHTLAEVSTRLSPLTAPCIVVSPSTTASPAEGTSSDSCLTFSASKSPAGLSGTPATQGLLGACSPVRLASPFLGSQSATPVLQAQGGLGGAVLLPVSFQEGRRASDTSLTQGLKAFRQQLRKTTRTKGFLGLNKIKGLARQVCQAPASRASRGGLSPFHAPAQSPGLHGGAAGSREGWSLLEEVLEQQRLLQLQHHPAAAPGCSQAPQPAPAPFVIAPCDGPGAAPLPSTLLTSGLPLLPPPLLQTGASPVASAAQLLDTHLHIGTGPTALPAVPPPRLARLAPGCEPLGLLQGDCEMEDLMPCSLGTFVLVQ

[14] = biological target: Bromodomain-containing protein 2 (Homo sapiens) (UniProt P25440); assay: Selectivity interaction (Human bromodomain panel (DSF assay)) EUB0000233b BRD2

SMILES: Cc1cc(C)cc([C@@H]2c3cc(C)ccc3NC(=O)CN2C(=O)c2ccc(Br)s2)c1
- % of activity ([1]; at 1 µM): 101%
- % of activity ([1]; at 10 µM): 96.7%

- % of inhibition (Insulin receptor): 69%
SMILES: CCc1cc(Nc2nccc(-c3c(-c4ccc(OC)c(C(=O)Nc5c(F)cccc5F)c4)nc4ccccn34)n2)c(OC)cc1N1CCC(N2CCN(S(C)(=O)=O)CC2)CC1

SMILES: CN(C)C/C=C/C(=O)Nc1ccc(C(=O)N2CCCC(Nc3ncc(Cl)c(-c4c[nH]c5ccccc45)n3)C2)cc1 (stereo not given)
- % of control [2]: 88%
- % of control [3]: 96%
- % of control [4]: 83%

SMILES: CN(C)CCOc1ccc(-c2nc(-c3ccncc3)c(-c3ccc4c(c3)CC/C4=N\O)[nH]2)cc1
- % of control [5]: 100%

SMILES: O[C@H]1CC[C@H](Nc2ncc3nc(Nc4c(F)cc(F)cc4F)n([C@H]4CCOC4)c3n2)CC1
- % of control [6]: 98%

SMILES: N#Cc1cccc(-c2c[nH]c3ncnc(N4CCOCC4)c23)c1
- % of inhibition [7]: 21%

SMILES: COCC(=O)NC/C=C/c1ccc2ncnc(Nc3ccc(Oc4ccc(C)nc4)c(C)c3)c2c1 [CP-724714]
- % of control [8]: 53%

SMILES: C=CC(=O)Nc1ccc(C(=O)Nc2[nH]nc3c2CN(C(=O)N[C@H](CN(C)C)c2ccccc2)C3(C)C)cc1
- % of engagement [9]: -5.3%

- % of inhibition ([10]; at 0.01 µM): -11.5%
- % of inhibition ([10]; at 0.04 µM): -1%
- % of inhibition ([10]; at 0.2 µM): -9.3%
- % of inhibition ([10]; at 1 µM): -0.4%
- % of inhibition ([10]; at 5 µM): 16.4%
- % of inhibition [11]: 5.09%
SMILES: CC[C@@H]1[C@H](F)C(=O)N[C@@H]1COc1nccc2cc(C(N)=O)c(OC)cc12 [ZIMLOVISERTIB]

SMILES: COc1cc(N(C)c2ccnc3ccc(C(F)(F)F)cc23)cc(OC)c1OC
- % binding [12]: 94%

SMILES: COc1cc(Nc2nc(C)cc(-c3cnn4nc(OC)ccc34)n2)cc(C(F)(F)F)c1
- % of control [13]: 93%

- dTM [14]: < 2 K
SMILES: CN(C)CCCOc1ccc(-c2cc(NCCCn3cccn3)nc(S(C)(=O)=O)n2)cc1
